Data: patent publication US12544428B2, “Controlled-release CNP agonists with reduced side-effects” (ASCENDIS PHARMA GROWTH DISORDERS A/S, priority 2016, dated 2026)

Key:
NPR-C = biological target: T1, NPR-C (Homo sapiens, UniProt P17342); assay: NPR-C affinity assay; format: binding; settings: residual NPR-C affinity, NPR-C expressing Hek293 cells, competition with fluorescein-labelled CNP 27d
T1 construct: expressed in transfected cells; host or cells: Hek293, lentiviral transduction, CMV promoter, puromycin selection
T1 sequence (P17342 27-541): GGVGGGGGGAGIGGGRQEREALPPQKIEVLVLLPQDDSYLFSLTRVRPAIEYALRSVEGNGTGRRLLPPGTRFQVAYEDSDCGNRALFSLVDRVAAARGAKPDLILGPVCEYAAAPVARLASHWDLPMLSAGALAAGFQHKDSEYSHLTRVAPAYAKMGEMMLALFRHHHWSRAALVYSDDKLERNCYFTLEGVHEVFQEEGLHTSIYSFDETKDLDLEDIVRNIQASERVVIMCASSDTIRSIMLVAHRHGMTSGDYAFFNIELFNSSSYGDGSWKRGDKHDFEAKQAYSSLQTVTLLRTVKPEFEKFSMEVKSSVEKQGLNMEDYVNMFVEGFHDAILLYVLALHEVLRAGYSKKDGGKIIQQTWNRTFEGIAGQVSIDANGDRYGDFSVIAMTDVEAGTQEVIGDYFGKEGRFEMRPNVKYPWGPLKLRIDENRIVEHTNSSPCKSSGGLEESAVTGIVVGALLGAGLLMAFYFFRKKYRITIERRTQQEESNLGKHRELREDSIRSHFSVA

NPR-B receptor = biological target: T2, NPR-B receptor (Mus musculus, UniProt Q6VVW5); assay: Functional cGMP stimulation in NIH-3T3 cells with CNP variants; format: cell-based, murine; settings: residual NPR-B activity vs non-PEGylated CNP-38, cGMP
T2 construct: These cells express endogenously the NPR-B receptor on the cell surface; endogenous in cells; host or cells: NIH-3T3 (murine embryo fibroblast)
T2 sequence (Q6VVW5 23-1047 limits assumed): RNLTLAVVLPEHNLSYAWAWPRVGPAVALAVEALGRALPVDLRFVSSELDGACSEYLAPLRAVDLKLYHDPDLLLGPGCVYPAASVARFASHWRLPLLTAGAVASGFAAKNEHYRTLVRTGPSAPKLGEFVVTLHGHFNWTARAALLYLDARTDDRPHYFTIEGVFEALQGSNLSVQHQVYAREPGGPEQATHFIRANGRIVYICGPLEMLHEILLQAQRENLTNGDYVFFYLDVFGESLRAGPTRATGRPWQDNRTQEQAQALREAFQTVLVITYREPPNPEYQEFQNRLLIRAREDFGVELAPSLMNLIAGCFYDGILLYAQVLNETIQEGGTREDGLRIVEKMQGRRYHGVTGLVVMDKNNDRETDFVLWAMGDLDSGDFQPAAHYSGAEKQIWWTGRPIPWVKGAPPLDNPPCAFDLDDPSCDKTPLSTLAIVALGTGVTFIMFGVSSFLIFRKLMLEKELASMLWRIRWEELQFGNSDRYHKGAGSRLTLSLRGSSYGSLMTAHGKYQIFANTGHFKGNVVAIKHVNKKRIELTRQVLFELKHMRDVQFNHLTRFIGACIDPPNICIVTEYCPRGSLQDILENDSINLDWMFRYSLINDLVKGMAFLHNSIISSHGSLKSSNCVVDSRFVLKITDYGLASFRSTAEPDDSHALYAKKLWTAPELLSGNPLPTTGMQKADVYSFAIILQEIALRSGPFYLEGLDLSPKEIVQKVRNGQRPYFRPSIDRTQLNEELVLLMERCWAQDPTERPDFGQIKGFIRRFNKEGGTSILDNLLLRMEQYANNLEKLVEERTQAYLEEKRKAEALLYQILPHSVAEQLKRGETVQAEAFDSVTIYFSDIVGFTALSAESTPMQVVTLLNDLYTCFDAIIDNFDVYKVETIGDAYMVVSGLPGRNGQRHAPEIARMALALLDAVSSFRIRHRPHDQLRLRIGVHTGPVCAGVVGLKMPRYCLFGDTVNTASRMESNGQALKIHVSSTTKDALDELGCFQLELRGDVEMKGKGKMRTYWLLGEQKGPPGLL
Description: As used herein “EC50” with regard to controlled-release CNP agonist and CNP agonist refers to the concentration of controlled-release CNP agonist and CNP agonist with which a half-maximum cGMP production of NPR-B is elicited. NPR-B activity in the form of its EC50 of the controlled-release CNP agonist, of the released CNP agonist and of CNP-22 is measured by cultivating NIH-3T3 (Murine Embryo Fibroblast cell line) cells which express NPR-B on their cell surface, incubating the cells with the controlled-release CNP agonist, the corresponding released CNP agonist or CNP-22, respectively, and determining the intracellular production of the second messenger cGMP with a standard cGMP assay. In particular the assay is performed as follows: • (1) murine NIH-3T3 cells expressing endogenous NPR-B are cultivated in DMEM F-12 medium with 5% FBS and 5 mM glutamine at 37° C. and 5% CO2; • (2) for each assay 50,000 cells are resuspended in Dulbecco's PBS with IBMX and incubated with either the controlled-release CNP agonist, the corresponding released CNP agonist or CNP-22; each in different concentrations; • (3) after incubating for 30 min at 37° C. and 5% CO2, the cells are lysed and cGMP levels are determined; and • (4) generating an EC50 value from the determined cGMP levels.
Functional activity of CNP variants were determined in a cell-based assay with NIH-3T3 cells (Murine Embryo Fibroblast cell line). These cells express endogenously the NPR-B receptor on the cell surface. Stimulation of the NPR-B receptor with CNP leads to intracellular production of the second messenger cGMP which is detected with a commercially available cGMP assay. NIH-3T3 cells were routinely cultured in DMEM F-12 medium with 5% FBS and 5 mM glutamine at 37° C. and 5% CO2. For each assay, 50,000 cells were resuspended in stimulation buffer (Dulbecco's PBS with IBMX) and incubated with the CNP variants in different concentrations. CNP (dilutions were made in PBS with 0.2% BSA). After incubation of 30 min at 37° C. and 5% CO2, the cells were lyzed and cGMP levels were determined with a commercially available cGMP TR-FRET assay (Cisbio, cGMP kit, Cat. No. 62GM2PEB). PEGylated CNP variants were always characterized in comparison with the non-PEGylated version in the same experiment batch. If possible, evaluation of the residual activity was done via the relative EC50-parameter of the resulting dose-response curve (restricted model with common slope).
11i was incubated under physiological conditions (1 mg CNP-38 eq/mL), as described in Example 20. After 7 d, released CNP-38 was isolated by RP-HPLC and analyzed for bioactivity as described in Example 21.

Row | Substance | IC50 of PEGylated CNP-38/IC50 CNP-38 (NPR-C) | EC50 compound/EC50 CNP-38 (NPR-B receptor)
1 | Permanent Lys26 CNP-38 PEG4×10 kDa Conjugate [Compound 12g] | 143 | >>100
2 | Reversible Lys26 CNP-38 PEG2×20 kDa Conjugate [Compound 10f] | 12 | >>100
